Experimental data published in PMC5916850 (Bioorganic & medicinal chemistry letters, 2018).

Biological target: GRK5 (Homo sapiens, UniProt P34947)
Assay: GRK phosphorylation assay, GRK5
Conditions: average of three separate experiments run in duplicate; error = standard error of the mean

Sequence of GRK5 (P34947 whole entry, species assumed): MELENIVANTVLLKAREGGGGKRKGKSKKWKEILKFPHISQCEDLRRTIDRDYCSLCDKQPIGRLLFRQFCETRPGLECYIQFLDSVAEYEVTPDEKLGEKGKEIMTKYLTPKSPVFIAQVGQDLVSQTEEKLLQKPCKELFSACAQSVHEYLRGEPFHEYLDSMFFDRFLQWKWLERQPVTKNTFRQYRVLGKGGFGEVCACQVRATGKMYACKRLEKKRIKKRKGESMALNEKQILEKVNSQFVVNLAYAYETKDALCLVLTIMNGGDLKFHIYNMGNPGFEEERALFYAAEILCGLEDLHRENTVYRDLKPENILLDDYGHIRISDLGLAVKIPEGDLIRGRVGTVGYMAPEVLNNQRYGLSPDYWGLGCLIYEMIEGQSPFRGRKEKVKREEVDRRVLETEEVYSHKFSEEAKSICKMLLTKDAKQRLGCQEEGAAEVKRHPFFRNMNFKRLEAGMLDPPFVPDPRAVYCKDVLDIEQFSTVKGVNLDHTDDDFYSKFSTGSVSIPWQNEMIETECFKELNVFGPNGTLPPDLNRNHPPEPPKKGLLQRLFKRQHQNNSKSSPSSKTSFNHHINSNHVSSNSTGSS

For CC1=C(C(=O)Nc2ccc3[nH]ncc3c2)C(c2ccc(F)c(CC(=O)N3CCCC(C(C)(C)C)CC3)c2)NC(=O)N1 (stereo not shown) [Compound 31], the “GRK5 (IC50 μM)” value was “no sub-μM IC50 values”.
In the case of CC1=C(C(=O)Nc2ccc3[nH]ncc3c2)C(c2ccc(F)c(C(=O)NC3CC4CCC3(C)C4(C)C)c2)NC(=O)N1 (stereo not shown) [Compound 32], the “GRK5 (IC50 μM)” value is reported as “no sub-μM IC50 values”.
With C#CCN(CC(C)C)C(=O)Cc1cc(C2NC(=O)NC(C)=C2C(=O)Nc2ccc3[nH]ncc3c2)ccc1F (stereo not shown) [Compound 38] the “GRK5 (IC50 μM)” value was “no sub-μM IC50 values”.
With CC1=C(C(=O)Nc2ccc3[nH]ncc3c2)C(c2ccc(F)c(CCC(=O)N(CC(C)C)C(C)C)c2)NC(=O)N1 (stereo not shown) [Compound 41] the “GRK5 (IC50 μM)” value was “no sub-μM IC50 values”.
In the case of CCC(C)CN(CCO)C(=O)Cc1cc(C2NC(=O)NC(C)=C2C(=O)Nc2ccc3[nH]ncc3c2)ccc1F (stereo not shown) [Compound 44], the “GRK5 (IC50 μM)” value is reported as “no sub-μM IC50 values”.
For CC1=C(C(=O)Nc2ccc3[nH]ncc3c2)C(c2ccc(F)c(C(=O)NC(C)CCCC(C)C)c2)NC(=O)N1 (stereo not shown) [Compound 47], the “GRK5 (IC50 μM)” value was “no sub-μM IC50 values”.
With COCCCC1CCCCN1C(=O)c1cc(C2NC(=O)NC(C)=C2C(=O)Nc2ccc3[nH]ncc3c2)ccc1F (stereo not shown) [Compound 48] the “GRK5 (IC50 μM)” value was “no sub-μM IC50 values”.
